In patent publication US20070155832A1, “Use of sulfonamide compounds for the treatment of diabetes and/or obesity” (priority 2003, published 2007):

Key:
Type in all cases: biochemical
DGAT1 and DGAT2 [1] = experiment: DGAT inhibition (DGAT1 and DGAT2) in human liver microsomes
Description: (§1) The ability of compounds to inhibit DGAT can be measured as described in Coleman (1992) Methods in Enzymology 209, 98-102.
(§2) The inhibitory activity of sulfamic acid [[2,4,6-tris(1-methylethyl)phenyl]acetyl-2,6-bis(1-methylethyl)phenyl ester against DGAT1, DGAT2 and ACAT was measured in rat and human liver microsomes. DGAT1 and DGAT2 can be distinguished since DGAT2 is not active at high magnesium concentrations (concentrations of 50 mM or higher) whilst DGAT1 retains its activity at high magnesium concentrations.
(§3) The results obtained, expressed as the concentration of inhibitor at which 50% of the enzyme activity is inhibited, i.e. the IC50, are as follows: […]

ACAT [2] = experiment: ACAT inhibition in human liver microsomes
Description: (§4) The ability of compounds to inhibit ACAT can be measured using an in-vitro test described in Field & Salone (1982) Biochemica et Biophysica, 712, 557-570. The test assesses the ability of a test compound to inhibit the acylation of cholesterol by oleic acid by measuring the amount of radiolabeled cholesterol oleate formed from radiolabeled oleic acid in a tissue preparation containing rat liver microsomes.
as §2

DGAT1 and DGAT2 [3] = experiment: DGAT inhibition (DGAT1 and DGAT2) in rat liver microsomes
Description: as §1, §2, §3

ACAT [4] = experiment: ACAT inhibition in rat liver microsomes
Description: as §4, §2

DGAT1 [5] = target: T1, DGAT1 (Rattus norvegicus, UniProt Q9ERM3); experiment: DGAT1 inhibition at 100 mM Mg in rat liver microsomes
T1 construct: from tissue; host or cells: rat liver microsomes
T1 sequence (Q9ERM3 1-498): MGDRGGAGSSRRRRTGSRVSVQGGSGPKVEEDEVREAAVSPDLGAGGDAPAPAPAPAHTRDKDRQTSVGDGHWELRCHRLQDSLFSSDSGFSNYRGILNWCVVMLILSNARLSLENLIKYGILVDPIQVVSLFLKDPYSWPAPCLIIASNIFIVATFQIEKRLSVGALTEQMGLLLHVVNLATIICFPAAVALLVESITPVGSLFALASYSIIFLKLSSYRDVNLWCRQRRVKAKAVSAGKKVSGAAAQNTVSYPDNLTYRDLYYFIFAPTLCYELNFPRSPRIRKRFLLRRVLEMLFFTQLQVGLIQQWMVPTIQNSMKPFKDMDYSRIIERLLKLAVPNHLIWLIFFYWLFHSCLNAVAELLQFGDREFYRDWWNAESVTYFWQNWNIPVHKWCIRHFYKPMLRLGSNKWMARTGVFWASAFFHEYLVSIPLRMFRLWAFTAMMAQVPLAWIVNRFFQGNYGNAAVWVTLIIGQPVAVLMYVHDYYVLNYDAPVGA
Description: as §1, §2, §3

DGAT1 [6] = target: T2, DGAT1 (Homo sapiens, UniProt O75907); experiment: DGAT1 inhibition at 100 mM Mg in human liver microsomes
T2 construct: from tissue; host or cells: human liver microsomes
T2 sequence (O75907 1-488): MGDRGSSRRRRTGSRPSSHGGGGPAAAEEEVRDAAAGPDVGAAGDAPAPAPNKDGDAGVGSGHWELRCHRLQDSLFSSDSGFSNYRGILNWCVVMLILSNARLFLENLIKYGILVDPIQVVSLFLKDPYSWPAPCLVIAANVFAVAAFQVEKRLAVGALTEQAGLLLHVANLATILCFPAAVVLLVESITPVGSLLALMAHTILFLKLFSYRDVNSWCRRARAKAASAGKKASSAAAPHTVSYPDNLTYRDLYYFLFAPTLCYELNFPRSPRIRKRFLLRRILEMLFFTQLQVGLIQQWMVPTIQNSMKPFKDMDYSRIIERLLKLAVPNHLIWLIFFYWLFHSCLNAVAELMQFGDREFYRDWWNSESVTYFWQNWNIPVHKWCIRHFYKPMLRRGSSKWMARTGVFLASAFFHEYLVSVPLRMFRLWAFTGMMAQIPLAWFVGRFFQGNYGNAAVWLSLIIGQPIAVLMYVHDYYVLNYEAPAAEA
Description: as §1, §2, §3

IC50 (DGAT1 and DGAT2 [1]): 7.95 µM
IC50 (ACAT [2]): 5.67 µM
IC50 (DGAT1 and DGAT2 [3]): 3.41 µM
IC50 (ACAT [4]): 1.03 µM
IC50 (DGAT1 [5]): 2.28 µM
IC50 (DGAT1 [6]): 3.03 µM
Compound: CC(C)c1cc(C(C)C)c(CC(=O)NS(=O)(=O)Oc2c(C(C)C)cccc2C(C)C)c(C(C)C)c1 [sulfamic acid [[2,4,6-tris(1-methylethyl)phenyl]acetyl-2,6-bis(1-methylethyl)phenyl ester]
